{"source": "paper PMC8308585", "about": "“Design and Synthesis of Novel Thiazolo[5,4-d]pyrimidine Derivatives with High Affinity for Both the Adenosine A1 and A2A Receptors, and Efficacy in Animal Models of Depression” (Pharmaceuticals, 2021)", "key": {"[1]": {"molecular_target": "T1, hA2B AR (Homo sapiens, UniProt P29275)", "T1 construct": "expressed in transfected cells; host or cells: CHO cells", "T1 sequence (P29275 1-332)": "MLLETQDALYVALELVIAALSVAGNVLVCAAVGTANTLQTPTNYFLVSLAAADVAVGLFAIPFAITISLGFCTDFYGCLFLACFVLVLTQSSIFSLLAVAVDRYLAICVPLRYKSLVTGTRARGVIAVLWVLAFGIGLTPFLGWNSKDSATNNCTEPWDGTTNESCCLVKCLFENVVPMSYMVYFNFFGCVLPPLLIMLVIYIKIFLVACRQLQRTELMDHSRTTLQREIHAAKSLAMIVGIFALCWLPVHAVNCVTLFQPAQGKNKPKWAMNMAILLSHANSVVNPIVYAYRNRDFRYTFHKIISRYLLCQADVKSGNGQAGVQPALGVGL", "experiment": "Inhibition of NECA-stimulated adenylyl cyclase activity (cAMP) in CHO cells expressing hA2B AR", "format": "cell-based", "conditions": "mean ± SEM", "experimental": "Compounds 1–19 were evaluated for their binding affinity at hA1, hA2A, and hA3 ARs, stably transfected in Chinese hamster ovary (CHO) cells. […].\nThe binding affinity of the novel compounds was evaluated using radioligand competition experiments in CHO cells stably transfected with hA1 AR, hA2A AR, and hA3 AR subtypes. […]; The potency at hA2B AR, expressed on CHO cells, was determined by inhibition of NECA-stimulated adenylyl cyclase activity. […]\n(§1) Binding data and concentration–response curves were fitted by a nonlinear regression with the Prism program (GraphPAD Prism 7 Software, San Diego, CA, USA). Each concentration was tested 3–5 times in duplicate and the Ki or IC50 (the concentration of antagonists that produces 50% inhibition of the agonist effect) values are given as the mean ± standard error (S.E.)."}, "[2]": {"molecular_target": "T2, hA1 AR (Homo sapiens, UniProt P30542)", "T2 construct": "expressed in transfected cells; host or cells: CHO cells", "T2 sequence (P30542 1-326)": "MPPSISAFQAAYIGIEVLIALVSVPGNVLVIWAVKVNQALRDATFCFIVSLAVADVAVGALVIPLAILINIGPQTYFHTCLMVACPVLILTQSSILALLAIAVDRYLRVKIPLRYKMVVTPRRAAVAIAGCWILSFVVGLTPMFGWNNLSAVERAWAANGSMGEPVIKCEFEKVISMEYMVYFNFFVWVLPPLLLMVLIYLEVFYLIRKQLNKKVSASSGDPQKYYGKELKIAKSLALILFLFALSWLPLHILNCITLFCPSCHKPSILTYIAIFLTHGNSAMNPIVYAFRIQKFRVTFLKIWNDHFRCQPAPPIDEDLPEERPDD", "experiment": "Counteraction of NECA-induced decrease of cAMP in CHO cells expressing hA1 AR (GloSensor cAMP assay)", "format": "cell-based", "conditions": "NECA-stimulated activity in CHO cells expressing hA1 AR, mean ± standard error", "experimental": "(§2) Compound 18 was also tested to evaluate its antagonist behavior at the hA1 AR by assessing its ability to counteract NECA-induced decrease of cAMP accumulation.\n(§3) The intrinsic activity of understudy compounds was evaluated through the GloSensor cAMP assay, as described previously. Briefly, cells stably expressing the hA1, hA2A, and hA2B ARs and the biosensor were incubated for 2 h at rt in equilibration medium containing 3% v/v GloSensor cAMP reagent stock solution, 10% FBS, and 87% CO2 independent medium. Afterward, cells were dispensed in the wells of a 384-well plate and the reference agonist NECA or the compounds, at different concentrations, were tested. The antagonist profile of compounds was evaluated by assessing their ability to counteract NECA-induced increase (A2A and A2B ARs) or decrease (A1 AR) of cAMP accumulation. Responses were expressed as percentage of the maximal relative luminescence units (RLU).\nas §1"}, "[3]": {"test_system": "mice", "experiment": "Forced swimming test", "format": "in vivo, mouse", "conditions": "for Immobility Time: mouse FST, single dose 26 min before test, last 4 min of 6 min, mean ± SEM of 10 mice, vehicle 193.7 ± 8.9", "experimental": "To execute the tests, mice were divided into groups, each of which consisted of 10 animals. The tests were performed after a single p.o. administration of compound 18 at different dosages (10 mg Kg^−1 and 30 mg Kg^−1). Amitriptyline (15 mg Kg^−1) was used as the reference drug. Compounds were acutely administrated 26 min before the beginning of the experiment. In the FST (Table 4), the duration of immobility was recorded during the last 4 min of the 6 min test.\nMale CD-1 albino mice (22–25 g; Envigo, Varese, Italy) were housed in CeSAL (Centro Stabulazione Animali da Laboratorio, University of Florence, Florence, Italy) and used at least one week after their arrival. Animals were housed in 26 cm × 41 cm cages (12 mice each) and fed with a standard laboratory diet and tap water ad libitum. They were kept at 23 ± 1 °C with a 12 h light/dark cycle, light at 7 a.m. Compound 18 was administered per o.s. whereas amitriptyline was by a s.c. route following the most widely used approach reported in the literature.\nMice were individually placed into glass cylinders (height: 25 cm, diameter: 10 cm) containing 12 cm of water maintained at 22–23 °C for 6 min. Immobility was considered the animal floated in the water, in an upright position, and made only small movements to keep its head above water. The immobility time was recorded during the last 4-min of the 6-min test. A decrease in the duration of immobility is indicative of an antidepressant-like effect.\nBehavioral tests were performed by visual observation by researchers blinded to the treatments. Results were expressed as means ± SEM, variance was analyzed by ANOVA. A Bonferroni’s significant difference procedure was used as post-hoc comparison. p values of less than 0.05 and 0.01 were considered significant. Data were analyzed using the “Origin 8.1” software."}, "[4]": {"molecular_target": "T3, hA2A AR (Homo sapiens, UniProt P29274)", "T3 construct": "expressed in transfected cells; host or cells: CHO cells", "T3 sequence (P29274 whole entry)": "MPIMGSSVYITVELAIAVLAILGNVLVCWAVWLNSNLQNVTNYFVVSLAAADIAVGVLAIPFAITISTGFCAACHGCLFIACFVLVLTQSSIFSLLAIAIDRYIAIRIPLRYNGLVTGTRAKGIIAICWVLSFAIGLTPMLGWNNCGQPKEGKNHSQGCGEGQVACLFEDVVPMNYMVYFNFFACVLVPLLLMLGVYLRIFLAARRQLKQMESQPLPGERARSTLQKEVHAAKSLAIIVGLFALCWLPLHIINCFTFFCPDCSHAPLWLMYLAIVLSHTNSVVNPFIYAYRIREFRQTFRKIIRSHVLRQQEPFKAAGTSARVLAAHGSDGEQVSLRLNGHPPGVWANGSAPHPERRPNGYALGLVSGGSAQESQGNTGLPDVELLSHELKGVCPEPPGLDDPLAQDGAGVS", "experiment": "Inhibition of NECA-induced increase of cAMP in CHO cells expressing hA2A AR (GloSensor cAMP assay)", "format": "cell-based", "conditions": "inhibition of NECA-stimulated adenylyl cyclase activity, mean ± standard error", "experimental": "as §2, §3, §1"}}}
{"smiles": "Nc1nc(-c2ccco2)nc2sc(Cc3ccccc3F)nc12", "note": "[compound 18, 2-(2-Fluorobenzyl)-5-(furan-2-yl)thiazolo[5,4-d]pyrimidin-7-amine]", "values": [{"measurement": "IC50", "setting": "[1]", "result": "0.384 ± 0.055", "unit": "µM"}, {"measurement": "IC50", "setting": "[2]", "result": 0.36, "unit": "µM"}, {"measurement": "Immobility Time", "setting": "[3]; 10 mg kg^−1 p.o.", "result": "184.7 ± 5.6", "unit": "s"}, {"measurement": "Immobility Time", "setting": "[3]; 30 mg kg^−1 p.o.", "result": "143.5 ± 9.1", "unit": "s"}, {"measurement": "Antidepressant-like effect in FST (in words)", "setting": "[3]; mouse, 10 and 30 mg Kg^−1 p.o., vs amitriptyline 15 mg Kg^−1", "result": "dose-dependently induced an antidepressant-like effect comparable to that induced by the clinically used drug amitriptyline"}, {"measurement": "IC50", "setting": "[4]", "result": "0.014 ± 0.0034", "unit": "µM"}]}
